Read-outs that look alike come from different tables or passages of the source.
Tests used:
[1] = Partition coefficient (logP) between aqueous buffer and octanol; settings: phosphate/n-octanol
From the text: As stated above, the opioid metabolites according to the invention are polar metabolites. As understood hereinafter the term “polar” means a higher polarity as compared to the unpolar moφhine. The polar nature of a compound can be determined by measuring its partition coefficient between an aqueous buffer and an organic solvent such as octanol. […] This depends on the specific system.

[2] = system: patients following hip-replacement surgery; assay: M6G012 study: acute pain following hip-replacement surgery under general anaesthetic; format: in vivo, human; settings: 30 mg/70 kg at skin closure, four hour post-operative period
[3] = system: patients following total knee-replacement surgery; assay: M6G015 study: pain following total knee-replacement surgery; format: in vivo, human; settings: 10, 20, 30 mg/70 kg slow IV, PCA morphine allowed
Procedure: Patients received a single dose of study treatment 150 minutes after the administration of the nerve block. […] The complete study has recently been reported by Dahan et al. (Eur J Pain, 2008; 12(4): 403-411).

[4] = system: patients following major abdominal surgery; assay: M6G022 study: analgesic efficacy and tolerability of M6G and morphine following major abdominal surgery
Procedure: Pain relief, nausea and emesis were recorded for 24 to 48 hours after start of the patient controlled analgesia.
The study site personnel (with the exception of the pharmacy); representatives of the sponsoring company; and the organisation involved in monitoring, data management, or other aspects of the study were blinded to the study treatment. The use of midazolam, temazepam, zopiclone or other short-acting pre-operative anxiolytics was allowed. All patients received a standardised general anaesthetic consisting of propofol induction, with either isoflurane or sevoflurane maintenance. These inhalational agents are associated with a similar risk of PONV. Nitrous oxide was not allowed because of its emetic effects, and the risk of an imbalance in its use. An initial bolus of 1-3 μg/kg of fentanyl or 0.1-0.3 μg/kg of sufentanyl followed by further doses as required, was used for pre- and peri-operative analgesia. Post-operative analgesia was provided by the study drug.
The investigator could administer up to 5 ml of PCA study drug, on no more than two occasions in each 24 hour post-operative period, as rescue medication if the patient was in uncontrolled pain. […] The patients stayed on PCA for a minimum of 24 hours following surgery, but could continue up to 48 hours if clinically indicated.
No prophylactic antiemetic was given, although iv ondansetron (4 mg/2 ml) was available if the patient experienced severe nausea, or immediately following emesis. If this was ineffective further doses of ondansetron; or other agents such as cyclizine, prochlorperazine or perphenazine; were allowed.
Pain intensity at rest was assessed by the patients using the VRS-11 scale at baseline, 15, 30 and 45 minutes and 1, 2, 4, 6, 9, 12, 15, 18, 21 and 24 hours after the start of PCA. A numerical scale was chosen because of the practical difficulty for post-operative patients of completing a visual analogue scale. If the patient remained on PCA after 24 hours, the pain scores were recorded every 8 hours up to 48 hours. In addition, at the end of the study the patients and observers were asked to assess the acceptability of their pain relief over the entire study using a 5 point rating global scale ranging from very poor (1) to excellent (5). […] The total consumption of study drugs was calculated.
Emesis risk factors of female gender; history of motion sickness or PONV; or smoking status were recorded at screening. Post-operative nausea was assessed by the patient using a 4 point ordinal scale (none, mild, moderate, severe) and occurrence of vomiting or dry retching recorded (yes/no; and if yes, the number of episodes) pre-operatively (Day −1), at baseline, and at 1, 2, 4, 6, 9, 12, 15, 18, 21, 24, 32, 40 and 48 hours after administration of the test analgesic. Nausea and vomiting were also combined in a single scoring system (postoperative nausea & vomiting, PONV), with an episode of vomiting or dry retching being scored as a 3 (severe) on the nausea scale.
Sedation was assessed using a combination of a binary question (sleepy, yes or no) and a 3 point ordinal scale (mild, moderate, severe) if the patient was sedated. All adverse events were recorded, along with concomitant medication use, with particular attention being paid to the use of anti-emetics.
The Intention to Treat (ITT) set of patients comprised all those who had been exposed to study medication at least once. This analysis set was the basis for the main efficacy and all safety and demographic analyses. Data were double entered using interactive verification into a CLINTRIAL database (Version 3.3.3, Phase Forward, Waltham, Mass., USA), and analysed using SAS (version 8.2, SAS Institute Inc., Cary, N.C., USA).

[5] = system: patients following hip-replacement surgery; assay: M6G001A study: post-operative analgesia following hip-replacement surgery; format: in vivo, human; settings: all doses (10, 15, 20 mg/70 kg IV bolus followed by PCA)
From the text: . This was a double-blind, randomised study. […]

[6] = prior experimental human and clinical studies; cited from earlier work
[7] = literature, cited from earlier work

CN1CC[C@]23c4c5ccc(O)c4O[C@H]2[C@@H](OC2OC(C(=O)O)C(O)C(O)C2O)C=CC3[C@H]1C5 (stereo partly drawn) [M6G, (5α,6α)-7,8-Didehydro-4,5-epoxy-3-hydroxy-17-methylmorphinan-β-yl-β-D-glucopyranosiduronic acid]
logP [1]: -2.4 | pain (VAS) compared with 10 mg/70 kg morphine at skin closure [2]: non-inferior | patients' opinion of pain relief compared with placebo [3]: no statistically significant differences | reduction of AUC for vomiting and dry retching in favour of M6G ([4]; 0-24 hours): 32.3% | mean totals of PCA demands ([4]; 4-48 h): 53.1 | reduction of AUC for vomiting and dry retching in favour of M6G ([4]; 6-24 hours): 34.2% | Reduction of PONV AUC, M6G vs morphine ([4]; AUC 0-6 h): 27.0% | Reduction of PONV AUC, M6G vs morphine ([4]; AUC 0-12 h): 26.3% | Reduction of PONV AUC, M6G vs morphine ([4]; AUC 0-24 h): 24.3% | Reduction of PONV AUC, M6G vs morphine ([4]; AUC 6-24 h): 28.5% | Reduction of PONV AUC, M6G vs morphine ([4]; AUC 12-24 h): 24.5% | Reduction of PONV AUC, M6G vs morphine ([4]; AUC 24-48 h): 10.3% | patients with sedation score recorded as severe ([4]; baseline): 20.9% | patients sedated ([4]; baseline (when given control of the PCA button)): 75.7% | mean totals of PCA demands ([4]; early post-operative period (up to 4 hours)): 33.5 | magnitude of reduction of PONV ([4]; initial 24 hours post-operatively): 24-29% | dose required to achieve comfort initially ([4]; loading and recovery doses before PCA): 45.0 mg/70 kg | difference between the adjusted means of pain intensity AUCs for M6G and morphine ([4]; over the 24 hours, VRS-11): +3.318 | pain intensity compared with morphine ([4]; whole 24 hour period): non-inferior to morphine | tolerability [5]: well tolerated | potency ratio morphine and M6G [6]: 3 to 1 | Log P ([7]; Avdeef et al. 1996): −0.76 | Log P ([7]; Gaillard et al. 1994, calculated from lipophilicity potential): −1.3 | Log P ([7]; Wu et al. 1997): −2.95
